Our source for the occlusion time values is article PMC8698482, “WPK5, a Novel Kunitz-Type Peptide from the Leech Whitmania pigra Inhibiting Factor XIa, and Its Loop-Replaced Mutant to Improve Potency” (Biomedicines, 2021).

The test system of this assay is C57BL/6J mice. In words: FeCl3-induced carotid artery thrombosis model. Format: in vivo. To be noted: heparin sodium 2.7 mg/kg by tail vein 10 min before 6% FeCl3; observed 30 min; n = 6. Here is the method: The in vivo antithrombotic activity of WPK5-Mut was evaluated by using a FeCl3-induced carotid artery thrombosis model in mice. Mice (C57BL/6J, males, 18–22 g) were anesthetized by intraperitoneal injection of chloral hydrate (5%, 10 mL/kg) and then placed in a supine position on a heating pad (37 °C) to maintain body temperature. An incision was made in the middle of the mouse’s neck and the fascia and muscle were gradually separated to expose the carotid artery. A rubber strip (4 × 10 mm) was placed under the artery to separate it from the surrounding tissues, and mice were injected heparin sodium (2.7 mg/kg), WPK5-Mut (0.75, 1.5 and 3 mg/kg) or saline through the tail vein and placed under a laser speckle contrast imaging (moor FLPI-2, Moor Instruments Limited, Millwey, Axminster, Devon, EX13 5HU, UK) to observe the carotid blood flow. […] The occlusion time was defined as the time from the removal of the FeCl3 saturated filter paper to the blockage of the vessel for at least 3 consecutive min [44]. If a vessel is blocked at a certain time for 3 consecutive min, this time is recorded as occlusion time, and if no blockage occurs within 30 min, the occlusion time is recorded as 30 min. The blood flow was analyzed by moorFLPI ReviewV50 software.

Regarding heparin sodium, the occlusion time was over 30 min.
